Earlier results as cited in patent US20190298799A1, “CONTROLLED-RELEASE APOPTOSIS MODULATING COMPOSITIONS AND METHODS FOR THE TREATMENT OF OTIC DISORDERS” (Otonomy, Inc., priority 2008, published 2019).

Legend:
[1] = system: neurons and otic hair cells
cochlear culture = conditions: culture first treated with the inhibitor, then neomycin and/or cisplatin

Structure (SMILES)	protection from aminoglycoside ototoxicity [1]	apoptosis in cochlear culture (cochlear culture)
CC(=O)N[C@@H](CC(C)C)C(=O)N[C@@H](CC(C)C)C(=O)N[C@H](C=O)CCCNC(=N)N [Leupeptine, leupeptine]	protects neurons and otic hair cells from aminoglycoside ototoxicity	
C[S+]([O-])c1ccc(-c2nc(-c3ccc(F)cc3)c(-c3ccncc3)[nH]2)cc1 (centres unmarked) [SB-203580, 4-(4-Fluorophenyl)-2-(4-methylsulfinylphenyl)-5-(4-pyridyl) 1H-imidazole]		apoptosis is decreased
